The text below walks through data of patent publication US11180462B2, “Microbiocidal oxadiazole derivatives” (SYNGENTA PARTICIPATIONS AG, priority 2015, dated 2021).

The test system of one assay is Phakopsora Pachyrhizi. Put plainly: Fungicidal activity against Phakopsora pachyrhizi / soybean / leaf disc preventative (Asian soybean rust). It is filed as in vivo. Conditions: foliar, 200 ppm in the applied formulation, soybean leaf disks, compared to untreated control leaf disks, read-out: disease control. The method, then: Leaf disks or leaf segments of various plant species are cut from plants grown in a greenhouse. The cut leaf disks or segments are placed in multiwell plates (24-well format) onto water agar. The leaf disks are sprayed with a test solution before (preventative) or after (curative) inoculation. Compounds to be tested are prepared as DMSO solutions (max. 10 mg/ml) which are diluted to the appropriate concentration with 0.025% Tween20 just before spraying. The inoculated leaf disks or segments are incubated under defined conditions (temperature, relative humidity, light, etc.) according to the respective test system. A single evaluation of disease level is carried out 3 to 14 days after inoculation, depending on the pathosystem. Percent disease control relative to the untreated check leaf disks or segments is then calculated.
Fungicidal Activity Against Phakopsora Pachyrhizi Soybean/Leaf Disc Preventative (Asian Soybean Rust)
Soybean leaf disks are placed on water agar in multiwell plates (24-well format) and sprayed with the formulated test compound diluted in water. One day after application leaf discs are inoculated by spraying a spore suspension on the lower leaf surface. After an incubation period in a climate cabinet of 24-36 hours in darkness at 20° C. and 75% rh leaf disc are kept at 20° C. with 12 h light/day and 75% rh. The activity of a compound is assessed as percent disease control compared to untreated when an appropriate level of disease damage appears in untreated check leaf disks (12 to 14 days after application).
The following compounds at 200 ppm in the applied formulation give at least 80% disease control in this test when compared to untreated control leaf disks under the same conditions, which show extensive disease development.

Assay [1] has as its system Glomerella lagenarium (Colletotrichum lagenarium). Put plainly: Fungicidal activity against Glomerella lagenarium (Colletotrichum lagenarium) liquid culture / cucumber / preventative (anthracnose). It is filed as cell-based. Conditions: Colletotrichum orbiculare; 20 ppm in the applied formulation; liquid culture (PDB), growth inhibition measured photometrically after 3 to 4 days; compared to untreated control; read-out: disease control. In outline: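 Percent activity against the untreated check was derived from photometric growth measurements made 2 to 7 days after conidia in potato dextrose broth were combined with compound at 20 ppm. Cultures were kept dark at 24 °C and 96% humidity.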

Where only a bound is given, the exact number is not on record here.

As for `O=C(c1ccccc1Cl)N(Cc1ccc(-c2noc(C(F)(F)F)n2)cc1)CC(F)(F)F` [Compound 1.691, 2-chloro-N-(2,2,2-trifluoroethyl)-N-[[4-[5-(trifluoromethyl)-1,2,4-oxadiazol-3-yl]phenyl]methyl]-benzamide], the pest or weed control at 200 ppm with Phakopsora Pachyrhizi was at least 80%. Moreover, the inhibition of growth at 20 ppm in assay [1] was at least 80%.

Take `O=C(ON(Cc1ccc(-c2noc(C(F)(F)F)n2)cc1)C(=O)c1ccccc1Cl)c1ccccc1Cl` [Compound 1.755, [(2-chlorobenzoyl)-[[4-[5-(trifluoromethyl)-1,2,4-oxadiazol-3-yl]phenyl]methyl]-amino] 2-chlorobenzoate]: the pest or weed control at 200 ppm in the assay on Phakopsora Pachyrhizi was at least 80%. Also, the inhibition of growth at 20 ppm in assay [1] was at least 80%.

`O=C(CC1CC1)N(Cc1ccc(-c2noc(C(F)(F)F)n2)cc1)CC(F)(F)F` [Compound 1.706, 2-cyclopropyl-N-(2,2,2-trifluoroethyl)-N-[[4-[5-(trifluoromethyl)-1,2,4-oxadiazol-3-yl]phenyl]methyl]-acetamide]: in the assay with Phakopsora Pachyrhizi, the pest or weed control at 200 ppm is at least 80%. In assay [1], the inhibition of growth at 20 ppm was at least 80%.

As for `CCCCON(Cc1ccc(-c2noc(C(F)(F)F)n2)cc1)C(=O)C(CC)COC` (centres unmarked) [Compound 1.642, N-butoxy-2-(methoxymethyl)-N-[[4-[5-(trifluoromethyl)-1,2,4-oxadiazol-3-yl]phenyl]methyl]-butanamide], the pest or weed control at 200 ppm with Phakopsora Pachyrhizi is at least 80%. Also, in assay [1], the inhibition of growth at 20 ppm was at least 80%.

Turning to `CCCCON(Cc1ccc(-c2noc(C(F)(F)F)n2)cc1)C(=O)C1(C)CC1` [Compound 1.639, N-butoxy-1-methyl-N-[[4-[5-(trifluoromethyl)-1,2,4-oxadiazol-3-yl]phenyl]methyl]-cyclopropane-carboxamide], in the assay with Phakopsora Pachyrhizi, the pest or weed control at 200 ppm is at least 80%. The inhibition of growth at 20 ppm in assay [1] is at least 80%.

As for `CCC(C)(CC)C(=O)N(Cc1ccc(-c2noc(C(F)(F)F)n2)cc1)OC` [Compound 1.58, 2-ethyl-N-methoxy-2-methyl-N-[[4-[5-(trifluoromethyl)-1,2,4-oxadiazol-3-yl]phenyl]methyl]-butanamide], the pest or weed control at 200 ppm with Phakopsora Pachyrhizi is at least 80%. Also, the inhibition of growth at 20 ppm in assay [1] was at least 80%.

As to `CCCCON(Cc1ccc(-c2noc(C(F)(F)F)n2)cc1)C(C)=O` [Compound 1.649, N-butoxy-N-[[4-[5-(trifluoromethyl)-1,2,4-oxadiazol-3-yl]phenyl]methyl]-acetamide], in the assay on Phakopsora Pachyrhizi, the pest or weed control at 200 ppm was at least 80%. For the same molecule, the inhibition of growth at 20 ppm in assay [1] was at least 80%.

Turning to `COCCCC(=O)N(Cc1ccc(-c2noc(C(F)(F)F)n2)cc1)CC(F)(F)F` [Compound 1.700, 4-methoxy-N-(2,2,2-trifluoroethyl)-N-[[4-[5-(trifluoromethyl)-1,2,4-oxadiazol-3-yl]phenyl]methyl]-butanamide], the pest or weed control at 200 ppm in the assay on Phakopsora Pachyrhizi is at least 80%. In addition, the inhibition of growth at 20 ppm in assay [1] is at least 80%.

As to `CCCCON(Cc1ccc(-c2noc(C(F)(F)F)n2)cc1)C(=O)C1(C#N)CC1` [Compound 1.646, N-butoxy-1-cyano-N-[[4-[5-(trifluoromethyl)-1,2,4-oxadiazol-3-yl]phenyl]methyl]-cyclopropane-carboxamide], in the assay with Phakopsora Pachyrhizi, the pest or weed control at 200 ppm is at least 80%. In addition, the inhibition of growth at 20 ppm in assay [1] was at least 80%.

On to `O=C(CC1CCCC1)N(Cc1ccc(-c2noc(C(F)(F)F)n2)cc1)C1CC1` [Compound 1.84, 2-cyclopentyl-N-cyclopropyl-N-[[4-[5-(trifluoromethyl)-1,2,4-oxadiazol-3-yl]phenyl]methyl]-acetamide], for which the pest or weed control at 200 ppm with Phakopsora Pachyrhizi was at least 80%. Further, the inhibition of growth at 20 ppm in assay [1] was at least 80%.

In the case of `CCCCON(Cc1ccc(-c2noc(C(F)(F)F)n2)cc1)C(=O)CCCOC` [Compound 1.643, N-butoxy-4-methoxy-N-[[4-[5-(trifluoromethyl)-1,2,4-oxadiazol-3-yl]phenyl]methyl]-butanamide], in the assay with Phakopsora Pachyrhizi, the pest or weed control at 200 ppm is at least 80%. The inhibition of growth at 20 ppm in assay [1] was at least 80%.

As for `CC(C)(C)CC(=O)N(Cc1ccc(-c2noc(C(F)(F)F)n2)cc1)CC1CC1` [Compound 1.224, N-(cyclopropylmethyl)-3,3-dimethyl-N-[[4-[5-(trifluoromethyl)-1,2,4-oxadiazol-3-yl]phenyl]methyl]-butanamide], the pest or weed control at 200 ppm with Phakopsora Pachyrhizi is at least 80%. For the same molecule, in assay [1], the inhibition of growth at 20 ppm is at least 80%.

For `CCON(Cc1ccc(-c2noc(C(F)(F)F)n2)cc1)C(=O)CC(F)(F)F` [Compound 1.630, N-ethoxy-3,3,3-trifluoro-N-[[4-[5-(trifluoromethyl)-1,2,4-oxadiazol-3-yl]phenyl]methyl]-propanamide], the pest or weed control at 200 ppm in the assay with Phakopsora Pachyrhizi was at least 80%. Besides, the inhibition of growth at 20 ppm in assay [1] was at least 80%.

For `CCC(C)C(=O)N(Cc1ccc(-c2noc(C(F)(F)F)n2)cc1)CC(F)(F)F` (centres unmarked) [Compound 1.697, 2-methyl-N-(2,2,2-trifluoroethyl)-N-[[4-[5-(trifluoromethyl)-1,2,4-oxadiazol-3-yl]phenyl]methyl]-butanamide], the pest or weed control at 200 ppm in the assay with Phakopsora Pachyrhizi is at least 80%. Besides, the inhibition of growth at 20 ppm in assay [1] was at least 80%.

In the case of `CCC(COC)C(=O)N(Cc1ccc(-c2noc(C(F)(F)F)n2)cc1)CC(F)(F)F` (centres unmarked) [Compound 1.699, 2-(methoxymethyl)-N-(2,2,2-trifluoroethyl)-N-[[4-[5-(trifluoromethyl)-1,2,4-oxadiazol-3-yl]phenyl]methyl]-butanamide], the pest or weed control at 200 ppm in the assay with Phakopsora Pachyrhizi is at least 80%. For the same molecule, the inhibition of growth at 20 ppm in assay [1] was at least 80%.

As for `CCC(CC(=O)N(Cc1ccc(-c2noc(C(F)(F)F)n2)cc1)OC)C(F)(F)F` (centres unmarked) [Compound 1.82, N-methoxy-3-(trifluoromethyl)-N-[[4-[5-(trifluoromethyl)-1,2,4-oxadiazol-3-yl]phenyl]methyl]-pentamide], the pest or weed control at 200 ppm in the assay with Phakopsora Pachyrhizi was at least 80%. For the same molecule, the inhibition of growth at 20 ppm in assay [1] was at least 80%.

With `CCCN(Cc1ccc(-c2noc(C(F)(F)F)n2)cc1)C(=O)C1CC1C` (centres unmarked) [Compound 1.657, 2-methyl-N-propyl-N-[[4-[5-(trifluoromethyl)-1,2,4-oxadiazol-3-yl]phenyl]methyl]-cyclopropane-carboxamide], in the assay with Phakopsora Pachyrhizi, the pest or weed control at 200 ppm was at least 80%. Also, in assay [1], the inhibition of growth at 20 ppm was at least 80%.

Consider `O=C(CC(F)(F)F)N(Cc1ccc(-c2noc(C(F)(F)F)n2)cc1)CC1CC1` [Compound 1.220, N-(cyclopropylmethyl)-3,3,3-trifluoro-N-[[4-[5-(trifluoromethyl)-1,2,4-oxadiazol-3-yl]phenyl]methyl]-propanamide], for which, in the assay on Phakopsora Pachyrhizi, the pest or weed control at 200 ppm is at least 80%. Further, the inhibition of growth at 20 ppm in assay [1] is at least 80%.

On to `CCCCON(Cc1ccc(-c2noc(C(F)(F)F)n2)cc1)C(=O)CCOC` [Compound 1.637, N-butoxy-3-methoxy-N-[[4-[5-(trifluoromethyl)-1,2,4-oxadiazol-3-yl]phenyl]methyl]-propanamide], for which the pest or weed control at 200 ppm in the assay on Phakopsora Pachyrhizi was at least 80%. Further, the inhibition of growth at 20 ppm in assay [1] was at least 80%.

Turning to `CCCCON(Cc1ccc(-c2noc(C(F)(F)F)n2)cc1)C(=O)C1CC1(F)F` (centres unmarked) [Compound 1.634, N-butoxy-2,2-difluoro-N-[[4-[5-(trifluoromethyl)-1,2,4-oxadiazol-3-yl]phenyl]methyl]-cyclopropane-carboxamide], the pest or weed control at 200 ppm in the assay on Phakopsora Pachyrhizi is at least 80%. Moreover, in assay [1], the inhibition of growth at 20 ppm was at least 80%.

Regarding `CCCCON(Cc1ccc(-c2noc(C(F)(F)F)n2)cc1)C(=O)CC#N` [Compound 1.645, N-butoxy-2-cyano-N-[[4-[5-(trifluoromethyl)-1,2,4-oxadiazol-3-yl]phenyl]methyl]-acetamide], in the assay with Phakopsora Pachyrhizi, the pest or weed control at 200 ppm is at least 80%. In assay [1], the inhibition of growth at 20 ppm is at least 80%.

Turning to `C#CCN(Cc1ccc(-c2noc(C(F)(F)F)n2)cc1)C(=O)C1CC1c1ccccc1` (centres unmarked) [Compound 1.166, 2-phenyl-N-prop-2-ynyl-N-[[4-[5-(trifluoromethyl)-1,2,4-oxadiazol-3-yl]phenyl]methyl]-cyclopropane-carboxamide], the pest or weed control at 200 ppm with Phakopsora Pachyrhizi was at least 80%. Further, the inhibition of growth at 20 ppm in assay [1] is at least 80%.

Take `CCON(Cc1ccc(-c2noc(C(F)(F)F)n2)cc1)C(=O)CC1CC1` [Compound 1.632, 2-cyclopropyl-N-ethoxy-N-[[4-[5-(trifluoromethyl)-1,2,4-oxadiazol-3-yl]phenyl]methyl]-acetamide]: the pest or weed control at 200 ppm with Phakopsora Pachyrhizi was at least 80%. Moreover, in assay [1], the inhibition of growth at 20 ppm is at least 80%.

For `CCCCON(Cc1ccc(-c2noc(C(F)(F)F)n2)cc1)C(=O)C1CCCO1` (centres unmarked) [Compound 1.644, N-butoxy-N-[[4-[5-(trifluoromethyl)-1,2,4-oxadiazol-3-yl]phenyl]methyl]-tetrahydrofuran-2-carboxamide], the pest or weed control at 200 ppm in the assay with Phakopsora Pachyrhizi was at least 80%. For the same molecule, in assay [1], the inhibition of growth at 20 ppm is at least 80%.

With `CCON(Cc1ccc(-c2noc(C(F)(F)F)n2)cc1)C(=O)c1ccccc1Cl` [Compound 1.616, 2-chloro-N-ethoxy-N-[[4-[5-(trifluoromethyl)-1,2,4-oxadiazol-3-yl]phenyl]methyl]-benzamide], the pest or weed control at 200 ppm in the assay with Phakopsora Pachyrhizi is at least 80%. Also, the inhibition of growth at 20 ppm in assay [1] is at least 80%.
